Values joined by “and” are separate entries in the source; they are usually repeats but may differ in a detail not shown here. Equal entries are not always repeated.
Tests used:
[1] = tested on: Centipedegrass (ERLOP); test: Crop injury (safening) in the field, centipedegrass; format: in vivo, Eremochloa ophiuroides
Procedure: (§1) Field trials were conducted in rice and turf using standard herbicide small plot research methodology. Plots varied from 3×3 meter (m) to 3×10 m (width×length) with 4 replicates per treatment. The rice crop was grown using normal cultural practices for fertilization, seeding, watering, flooding and maintenance to ensure good growth of the crop and the weeds. The turf crop was a permanent established crop of centipedegrass that was grown and maintained under normal cultural practices for fertilization, watering, mowing and disease maintenance to ensure good growth of the crop and the weeds.
(§2) All treatments in the field trials were applied using a carbon dioxide (CO2) backpack sprayer calibrated to apply 187 L/ha spray volume. Commercially available products of penoxsulam and fluoroxypyr-meptyl were mixed in water at appropriately formulated product rates to achieve the desired rates based on a unit area of application (hectare) to achieve the desired rates as shown. Treatments were rated at 7 to 33 days after application as compared to the untreated control plants. Visual weed control was scored on a scale of 0 to 100 percent where 0 corresponds to no injury and 100 corresponds to complete kill. […]

[2] = tested on: Brachiaria platyphylla (BRAPP); broadleaf signalgrass; test: Postemergence herbicidal activity of mixtures in the greenhouse, BRAPP; format: in vivo; conditions: 21 DAA
Procedure: (§3) Seeds of the desired test plant species were planted in 80% mineral soil/20% grit planting mixture, which typically has a pH of 7.2 and an organic matter content of about 2.9 percent, in plastic pots with a surface area of 128 square centimeters (cm^2). The growing medium was steam sterilized. The plants were grown for 7-19 days in a greenhouse with an approximate 14-hour (h) photoperiod which was maintained at about 29° C. during the day and 26° C. during the night. Nutrients and water were added on a regular basis and supplemental lighting was provided with overhead metal halide 1000-Watt lamps as necessary. The plants were treated with postemergence foliar applications when they reached the third to fourth true leaf stage. All treatments were applied using a randomized complete block trial design, with 4 replications per treatment.
(§4) Treatments consisted of the compounds as listed in Tables 1, 3, 5 and 6, each compound applied alone and in combination. Formulated amounts of penoxsulam, halosulfuron-methyl, imazamox and fluoroxypyr-meptyl ester, were placed in 60 milliliter (mL) glass vials and dissolved in a volume of 60 mL of a water solution containing Agri-dex crop oil concentrate in a 1% volume per volume (v/v) ratio. Compound requirements are based upon a 12 mL application volume at a rate of 187 liters per hectare (L/ha). Spray solutions of the mixtures were prepared by adding the stock solutions to the appropriate amount of dilution solution to form 12 mL spray solution with active ingredients in single and two way combinations. Formulated compounds were applied to the plant material with an overhead Mandel track sprayer equipped with 8002E nozzles calibrated to deliver 187 L/ha at a spray height of 18 inches (43 centimeters (cm)) above average plant canopy.
(§5) The treated plants and control plants were placed in a greenhouse as described above and watered by sub-irrigation to prevent wash-off of the test compounds. Treatments were rated at 7 to 21 days after application (DAA) as compared to the untreated control plants. Visual weed control was scored on a scale of 0 to 100 percent where 0 corresponds to no injury and 100 corresponds to complete kill.
(§6) Colby's equation was used to determine the herbicidal effects expected from the mixtures (Colby, S. R. Calculation of the synergistic and antagonistic response of herbicide combinations. Weeds 1967, 15, 20-22).
(§7) The following equation was used to calculate the expected activity of mixtures containing two active ingredients, A and B: Expected=A+B−(A×B/100)

[3] = tested on: Sesbania exaltata, SEBEX; Hemp sesbania; test: Postemergence herbicidal activity of mixtures in the field, SEBEX; format: in vivo
Procedure: as §1, §2

[4] = tested on: Plantago lanceolata, PLALA; narrow-leaved plantain; test: Postemergence herbicidal activity of mixtures in the field, PLALA; format: in vivo
Procedure: as §1, §2

[5] = tested on: Scirpus juncoides (SCPJU); Japanese bulrush; test: Postemergence herbicidal activity of mixtures in the greenhouse, SCPJU; format: in vivo
Procedure: as §3
Treatments consisted of the compounds as listed in Tables 1, 3, 5 and 6, each compound applied alone and in combination. […]
(§8) The treated plants and control plants were placed in a greenhouse as described above and watered by sub-irrigation to prevent wash-off of the test compounds. […] Visual weed control was scored on a scale of 0 to 100 percent where 0 corresponds to no injury and 100 corresponds to complete kill. […]

[6] = tested on: Caperonia palustris, CNPPA; Texasweed; test: Postemergence herbicidal activity of mixtures in the field, CNPPA; format: in vivo
Procedure: as §1
All treatments in the field trials were applied using a carbon dioxide (CO2) backpack sprayer calibrated to apply 187 L/ha spray volume. Commercially available products of penoxsulam and fluoroxypyr-meptyl were mixed in water at appropriately formulated product rates to achieve the desired rates based on a unit area of application (hectare) to achieve the desired rates as shown. Treatments were rated at 7 to 33 days after application as compared to the untreated control plants. Visual weed control was scored on a scale of 0 to 100 percent where 0 corresponds to no injury and 100 corresponds to complete kill.
as §6, §7

[7] = tested on: Panicum dichotomiflorum, PANDI; fall panicum; test: Postemergence herbicidal activity of mixtures in the field, PANDI; format: in vivo
Procedure: as §1, §2

[8] = tested on: Cyperus esculentus (CYPES); yellow nutsedge; test: Postemergence herbicidal activity of mixtures in the greenhouse, CYPES; format: in vivo; conditions: 21 DAA
Procedure: as §3, §4, §5, §6, §7

[9] = tested on: Sunflower (HELAN); test: Crop injury (safening) in the field, sunflower; format: in vivo, Helianthus annuus; conditions: Fluroxypyr-meptyl 100 g ae/ha alone
[10] = tested on: Echinochloa crus-galli (ECHCG); barnyardgrass; test: Postemergence herbicidal activity of mixtures in the greenhouse, ECHCG; format: in vivo
Procedure: as §3, §4, §5, §6, §7

[11] = tested on: Leptochloa spp, LEFSS; sprangletop; test: Postemergence herbicidal activity of mixtures in the field, LEFSS; format: in vivo
Procedure: as §1
All treatments in the field trials were applied using a carbon dioxide (CO2) backpack sprayer calibrated to apply 187 L/ha spray volume. […] Treatments were rated at 7 to 33 days after application as compared to the untreated control plants. Visual weed control was scored on a scale of 0 to 100 percent where 0 corresponds to no injury and 100 corresponds to complete kill.
as §6, §7

[12] = tested on: Leptochloa chinensis (LEFCH); Chinese sprangletop; test: Postemergence herbicidal activity of mixtures in the greenhouse, LEFCH; format: in vivo; conditions: 21 DAA
Procedure: as §3, §4, §8

[13] = Fluroxypyr-meptyl 200 g ae/ha alone
[14] = Fluroxypyr-meptyl 97 g ae/ha alone
[15] = Fluroxypyr-meptyl 290 g ae/ha alone
[16] = Halosulfuron-methyl 4.4 g ai/ha alone
[17] = Halosulfuron-methyl 18 g ai/ha alone

In the case of CCCCCCC(C)OC(=O)COc1nc(F)c(Cl)c(N)c1Cl (centres unmarked) [Fluroxypyr-meptyl, fluoroxypyr-meptyl ester], the “% Injury ERLOP Ob” value ([1]; Fluroxypyr-meptyl 210 g ae/ha alone, field) is reported as 6%, the “% Control BRAPP Ob” value ([2]; Fluroxypyr-meptyl 50 g ae/ha alone) is reported as 10% and the “% Control BRAPP Ob” value ([2]; Fluroxypyr-meptyl 100 g ae/ha alone) is reported as 23%. For the same molecule, the “% Control BRAPP Ob” value [2, 13] was 20%, the “% Control SEBEX Ob” value [3, 14] was 57% and the “% Control PLALA Ob” value ([4]; Fluroxypyr-meptyl 140 g ae/ha alone) was 0%. The “% Control SCPJU Ob” value ([5]; Fluroxypyr-meptyl 70 g ae/ha alone) was 60%, the “% Control CNPPA Ob” value [6, 14] was 45% and the “% Control CNPPA Ob” value [6, 15] was 60%. The “% Control PANDI Ob” value [7, 15] was 0%, the “% Control CYPES Ob” value ([8]; Fluroxypyr-meptyl 50 g ae/ha alone, Table 5) was 1% and the “% Control CYPES Ob” value ([8]; Fluroxypyr-meptyl 100 g ae/ha alone, Table 5) was 3%. For the same molecule, the “% Control CYPES Ob” value ([8]; Fluroxypyr-meptyl 100 g ae/ha alone, Table 6) was 10%, the “% Control CYPES Ob” value ([8]; Fluroxypyr-meptyl 200 g ae/ha alone, Table 5) was 8% and the “% Control CYPES Ob” value ([8]; Fluroxypyr-meptyl 200 g ae/ha alone, Table 6) was 9%. For the same molecule, the “% Injury HELAN Ob” value [9] was 31% and 34%, the “% Control ECHCG Ob” value ([10]; Fluroxypyr-meptyl 50 g ae/ha alone, 21 DAA, Table 5) was 6% and the “% Control ECHCG Ob” value ([10]; Fluroxypyr-meptyl 50 g ae/ha alone, 21 DAA, Table 6) was 1.3%. The “% Control ECHCG Ob” value ([10]; Fluroxypyr-meptyl 100 g ae/ha alone, 21 DAA, Table 5) was 2%, the “% Control ECHCG Ob” value ([10]; Fluroxypyr-meptyl 100 g ae/ha alone, 21 DAA, Table 6) was 4% and the “% Control ECHCG Ob” value ([10]; Fluroxypyr-meptyl 200 g ae/ha alone, 21 DAA, Table 5) was 11%. For the same molecule, the “% Control ECHCG Ob” value ([10]; Fluroxypyr-meptyl 200 g ae/ha alone, 21 DAA, Table 6) was 6%, the “% Control ECHCG Ob” value ([10]; Fluroxypyr-meptyl 340 g ae/ha alone, Table 1) was 0% and the “% Control LEFSS Ob” value [11, 15] was 0%. The “% Control LEFCH Ob” value [12, 13] was 15%.

COC(=O)c1c(Cl)nn(C)c1S(=O)(=O)NC(=O)Nc1nc(OC)cc(OC)n1 [Halosulfuron-methyl, methyl 3-chloro-5-[[[[(4,6-dimethoxy-2-pyrimidinyl)amino]carbonyl]amino]sulfonyl]-1-methyl-1H-pyrazole-4-carboxylate] was tested, and the “% Control CYPES Ob” value [8, 16] was 68%, the “% Control CYPES Ob” value ([8]; Halosulfuron-methyl 8.8 g ai/ha alone) was 73% and the “% Control CYPES Ob” value [8, 17] was 78%. For the same molecule, the “% Control ECHCG Ob” value ([10]; Halosulfuron-methyl 8.8 g ai/ha alone, 21 DAA) was 3%, the “% Control ECHCG Ob” value ([10]; Halosulfuron-methyl 18 g ai/ha alone, 21 DAA) was 6% and the “% Control LEFCH Ob” value [12, 16] was 2%. The “% Control LEFCH Ob” value [12, 17] was 8%.

With COCc1cnc(C2=NC(C)(C(C)C)C(=O)N2)c(C(=O)O)c1 (centres unmarked) [Imazamox, 2-[4,5-dihydro-4-methyl-4-(1-methylethyl)-5-oxo-1H-imidazol-2-yl]-5-(methoxymethyl)-3-pyridinecarboxylic acid] the “% Control BRAPP Ob” value ([2]; Imazamox 4.4 g ai/ha alone) was 3%, the “% Control BRAPP Ob” value ([2]; Imazamox 8.8 g ai/ha alone) was 46% and the “% Control CYPES Ob” value ([8]; Imazamox 8.8 g ai/ha alone) was 8%. For the same molecule, the “% Control CYPES Ob” value ([8]; Imazamox 18 g ai/ha alone) was 42%, the “% Control ECHCG Ob” value ([10]; Imazamox 4.4 g ai/ha alone, 21 DAA) was 1.3% and the “% Control ECHCG Ob” value ([10]; Imazamox 8.8 g ai/ha alone, 21 DAA) was 29%. The “% Control ECHCG Ob” value ([10]; Imazamox 18 g ai/ha alone, 21 DAA) was 85%.

For CCc1cnc(C2=NC(C)(C(C)C)C(=O)N2)c(C(=O)O)c1 (centres unmarked) [Imazethapyr, 2-[4,5-dihydro-4-methyl-4-(1-methylethyl)-5-oxo-1H-imidazol-2-yl]-5-ethyl-3-pyridinecarboxylic acid], the “% Control PANDI Ob” value ([7]; Imazethapyr 70 g ai/ha alone) was 40% and the “% Control LEFSS Ob” value ([11]; Imazethapyr 70 g ai/ha alone) was 28%.

For COc1cnc(OC)n2nc(NS(=O)(=O)c3c(OCC(F)F)cccc3C(F)(F)F)nc12 [Penoxsulam, 2-(2,2-difluoroethoxy)-N-(5,8-dimethoxy-[1,2,4]triazolo[1,5-c]pyrimidin-2-yl)-6-(trifluoromethyl)benzenesulfonamide], the “% Injury ERLOP Ob” value ([1]; in vivo) was 15%, the “% Control SEBEX Ob” value ([3]; Penoxsulam 22 g ai/ha alone) was 76% and the “% Control PLALA Ob” value ([4]; Penoxsulam 15 g ai/ha alone) was 13%. The “% Control SCPJU Ob” value ([5]; Penoxsulam 10 g ai/ha alone) was 2%, the “% Control CNPPA Ob” value ([6]; Penoxsulam 35 g ai/ha alone) was 67% and the “% Control ECHCG Ob” value ([10]; Penoxsulam 15 g ai/ha alone) was 84% and 78% and 62%.

From US8338335B2, “Synergistic herbicidal composition containing fluroxypyr and penoxsulam, halosulfuron-methyl, imazamox or imazethapyr” (Dow Agrosciences, LLC, priority 2009, dated 2012)
